{
  "source": "patent US10280156B2",
  "about": "“Heteroaromatic chalcone derivatives and their medical use” (Medizinische Universität Wien, priority 2014, dated 2019)",
  "key": {"M2-10B4": {"system": "M2-10B4", "assay": "Viability test on mouse fibroblast cell line M2-10B4, 48 h", "format": "cell-based", "conditions": "Mus musculus, M210B4, 48 h, 48 h incubation; mouse fibroblast cell line", "protocol": "(§1) All experiments with hematological cell lines were done using phenol red-free RPMI 1640+L-glutamine (PAA Laboratories) supplemented with 1% PenStrep and 10% FBS gold, except experiments with OCI-Ly7 which were carried out in Gibco IMEM+GlutaMAX and 25 mM HEPES containing 20% FBS gold and 1% PenStrep. Cells were incubated in triplicates with increasing concentrations of the compounds for 48 h, changes in viability were determined using the cell proliferation and cytotoxicity assays EZ4U (Biomedica Group, Austria) and CellTiter-Blue Cell Viability Assay (Promega, Madison, Wis., USA) following instructions of the manufacturers. IC50 values were calculated from two independent experiments using GraphPad Prism 5 software.\nStructurally seen, the small molecule compound 1 represents a typical chalcone scaffold. It is characterized by an ortho-ethoxy-substituted phenyl part as ring A and a 2-naphthyl moiety symbolizing ring B. The focus of the present study was to guide the systematic identification of a growth inhibitor with specificity to neoplastic cells, as cytotoxicity towards healthy cells is mostly associated with adverse effects, which can be related to morbidity and mortality of the patient (Milligan D W et al. Brit J Haematol 2006, 135, 450-474). To discriminate in vitro between structural elements necessary for potent cytotoxicity towards tumor cells which, at the same time, clearly show less activity on normal cells, the compounds were additionally tested on the murine bone marrow fibroblast cell line M2-10B4. This cell line is regularly used as feeder layer when cultured with patient cells providing additional support and survival signals in particular in drug screens (Kurtova A V et al. Blood 2009, 114, 4441-4450).\nInitially, compounds were biologically tested in six concentration steps (0.1 μM; 1 μM; 5 μM; 10 μM; 50 μM; and 100 μM) using the CellTiter-Blue Cell Viability Assay (Promega, Madison, Wis., USA) and an incubation time of 48 hours. […] IC50 values were calculated from at least two independent experiments with 3 replicates each. In order to evaluate the biologic activity of the new compounds, cytotoxicity was compared to that of fludarabine, an already approved drug for the treatment of various B-cell malignancies. […] Differences in IC50 values for the different cell types can be explained by the biological and genetic particularities of each subtype of B-cell Non-Hodgkin lymphoma (Stacchini A et al. Leukemia Res 1999, 23, 127-136; Sambade C et al. Int J Cancer 2006, 118, 555-563; Chang H et al. Leukemia lymphoma 1995, 19, 165-171; Tweeddale M E et al. Blood 1987, 69, 1307-1314; Tweeddale M et al. Blood 1989, 74, 572-578)."}, "[1]": {"system": "PBMC of chronic lymphocytic leukemia (CLL) patients", "assay": "Viability of primary CLL cells in suspension culture", "format": "cell-based", "conditions": "Homo sapiens, CLL cell, 48 h", "from_the_text": "(§2) Hematological cell lines were acquired from the Leibniz Institute DSMZ-German Collection of Microorganisms and Cell Cultures (www.dsmz.de). Sixteen patients diagnosed with chronic lymphocytic leukemia at the Division of Hematology and Hemostaseology at the Vienna General Hospital and four healthy donors were included in the study. All participants signed informed consent according to the Declaration of Helsinki (Ethics Committee Nr: EK 1722/2012). Peripheral blood mononuclear cells (PBMC) were isolated using standardized Ficoll-Hypaque gradient centrifugation (Seromed, Berlin, Germany) and stored in liquid nitrogen until use. […]\n(§3) Primary cells were incubated at a density of 300,000 cells per well in 96-well plates in a total volume of 100 μl of Gibco RPMI 1640+L-glutamine (PAA Laboratories) supplemented with 20% FBS gold with increasing concentrations of compounds for 48 h. […] Viability was measured using CellTiter-Blue Cell Viability Assay (Promega, Madison, Wis., USA) following the instructions of the manufacturers. Experiments with primary cells were done in triplicates, IC50 values were calculated from the mean values of all samples used in the various experiments using GraphPad Prism 5 software. […]"}, "[2]": {"system": "PBMC of healthy individuals", "assay": "Viability of healthy donor cells in suspension culture", "format": "cell-based", "conditions": "Homo sapiens, 48 h, read-out: IC50 HD Suspension", "from_the_text": "as §2, §3"}, "CCRF": {"system": "CCRF", "assay": "Viability test on CCRF cells", "format": "cell-based, human", "protocol": "JURKAT and CCRF-CEM (T-cell acute lymphoblastic leukemia), HL60 and K562 representing acute and chronic myeloid leukemia, respectively, the chronic lymphocytic leukemia cell line MEC-1, and the diffuse large B-cell lymphoma cell line U-2940 were cultured in Gibco RPMI 1640+GlutaMAX (Life Technologies, Carlsbad, Calif., USA) supplemented with 10% fetal bovine serum gold (FBS gold; PAA Laboratories, Pasching, Austria) and 1% PenStrep (100 U/ml penicillin and 100 μg/ml streptomycin; PAA Laboratories), and maintained at 37° C. in humidified atmosphere with 5% CO2. […]\nas §1, with “software. […]” for “software.”"}},
  "note": "pIC50: −log10 of the molar value.",
  "data": [
    {"compound": "CCOc1ccccc1C(=O)/C=C/c1cc2ccccc2[nH]1", "note": "[Compound 15, 1-(2-Ethoxyphenyl)-3-(1H-indole-2-yl)-2-propen-1-one]", "values": [
      {"measurement": "pIC50", "setting": "M2-10B4", "value": 4.72},
      {"measurement": "pIC50", "setting": "[1]", "value": 5.93},
      {"measurement": "pIC50", "setting": "[2]", "value": 4.87},
      {"measurement": "viability, % of control", "setting": "CCRF; CCRF, at concentrations <1 μM", "value": "less than 30 % of control"},
      {"measurement": "pIC50", "setting": "CCRF; Homo sapiens, T-cell acute leukemia, nd = no significant cytotoxic activity up to 100 μM", "value": 7.52}
    ]}
  ]
}
